US11254668B2, “Pyrazolo[1,5-A]pyrazin-4-yl and related derivatives” (Pfizer Inc., priority 2017, dated 2022)

What was measured:
Type in all cases: biochemical
Settings in all cases: JAK Caliper enzyme assay
TYK2 = TYK2 (Homo sapiens (Human), UniProt P29597); assay: JAK Caliper Enzyme Assay at 1 mM ATP, TYK2
How it was run: (§1)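 Recombinant human kinase domains phosphorylate a fluorescent synthetic peptide at 1 mM ATP and room temperature, with enzyme level and time tuned to 20–30% conversion before an EDTA stop. Microfluidic mobility-shift separation gives percent product from peak heights. Percent effect against plate controls (DMSO baseline) is plotted versus compound concentration.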

JAK1 = JAK1 (Homo sapiens (Human), UniProt P23458); assay: JAK Caliper Enzyme Assay at 1 mM ATP, JAK1
How it was run: (§2)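 Recombinant human kinase domains phosphorylated a fluorescent synthetic peptide at room temperature, with enzyme level and time tuned to 20% to 30% conversion; EDTA stop buffer ended reactions. Mobility-shift separation gave percent product from peak heights, normalised to DMSO and positive controls, and IC50s came from concentration–effect curves.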

JAK2 = JAK2 (Homo sapiens (Human), UniProt O60674); assay: JAK Caliper Enzyme Assay at 1 mM ATP, JAK2
How it was run: as §1

JAK3 = JAK3 (Homo sapiens (Human), UniProt P52333); assay: JAK Caliper Enzyme Assay at 1 mM ATP, JAK3
How it was run: as §2

Sequence of JAK1 (P23458 875-1153): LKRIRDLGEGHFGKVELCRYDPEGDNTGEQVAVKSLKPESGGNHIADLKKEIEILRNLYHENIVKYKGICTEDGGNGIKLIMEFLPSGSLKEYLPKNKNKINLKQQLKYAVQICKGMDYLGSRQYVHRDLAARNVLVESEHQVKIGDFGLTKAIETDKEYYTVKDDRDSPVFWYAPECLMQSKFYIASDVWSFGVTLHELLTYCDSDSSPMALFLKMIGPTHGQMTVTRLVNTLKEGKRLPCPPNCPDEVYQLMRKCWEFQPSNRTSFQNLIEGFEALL
Sequence of JAK2 (O60674 849-1124): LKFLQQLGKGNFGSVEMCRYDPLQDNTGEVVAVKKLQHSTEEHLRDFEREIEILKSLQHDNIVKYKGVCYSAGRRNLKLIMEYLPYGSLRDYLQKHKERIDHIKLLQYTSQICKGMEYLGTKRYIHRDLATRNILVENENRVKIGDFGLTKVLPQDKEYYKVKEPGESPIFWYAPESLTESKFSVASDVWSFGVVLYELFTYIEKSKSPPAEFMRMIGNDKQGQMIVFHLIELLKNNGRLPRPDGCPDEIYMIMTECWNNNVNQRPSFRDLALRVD
Sequence of TYK2 (P29597 897-1176): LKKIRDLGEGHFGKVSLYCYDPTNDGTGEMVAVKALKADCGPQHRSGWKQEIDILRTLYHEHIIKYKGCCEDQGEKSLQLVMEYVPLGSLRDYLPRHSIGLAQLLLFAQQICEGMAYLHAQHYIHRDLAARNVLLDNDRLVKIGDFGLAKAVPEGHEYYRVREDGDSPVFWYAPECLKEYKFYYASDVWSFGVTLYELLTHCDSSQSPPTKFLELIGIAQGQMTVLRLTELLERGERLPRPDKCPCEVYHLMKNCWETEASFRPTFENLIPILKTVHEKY
Sequence of JAK3 (P52333 822-1111): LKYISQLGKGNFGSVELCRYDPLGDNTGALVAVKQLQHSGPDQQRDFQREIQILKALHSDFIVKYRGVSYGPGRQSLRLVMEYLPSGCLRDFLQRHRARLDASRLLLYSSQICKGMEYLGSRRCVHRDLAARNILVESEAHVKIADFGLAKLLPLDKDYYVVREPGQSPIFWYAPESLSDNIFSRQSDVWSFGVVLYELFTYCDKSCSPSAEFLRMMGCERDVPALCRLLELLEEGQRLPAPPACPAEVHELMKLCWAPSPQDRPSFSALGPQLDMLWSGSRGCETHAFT

Structure (SMILES)	IC50 (TYK2)	IC50 (JAK1)	IC50 (JAK2)	IC50 (JAK3)
N#CC[C@]1(n2ncc(-c3cc(-c4ccc(C(N)=O)cc4)cc4ncccc34)n2)C[C@H](C#N)C1 [Example 433, 4-(5-{2-[cis-3-cyano-1-(cyanomethyl)cyclobutyl]-2H-1,2,3-triazol-4-yl}quinolin-7-yl)benzamide]	20 nM	0.352 µM	116 nM	6.7 µM
N#CCC1(n2ncc(-c3cc(-c4ccc(C(N)=O)cc4)cc4ncccc34)n2)CC(C#N)C1 (stereo not drawn) [Example 434, 4-(5-{2-[trans-3-cyano-1-(cyanomethyl)cyclobutyl]-2H-1,2,3-triazol-4-yl}quinolin-7-yl)benzamide]	99 nM	2.52 µM	748 nM	> 10 µM
N#CC[C@]1(n2ncc(-c3cc(-c4ccc(C(=O)O)cc4)cc4ncccc34)n2)C[C@H](C#N)C1 [Example 435, 4-(5-{2-[cis-3-cyano-1-(cyanomethyl)cyclobutyl]-2H-1,2,3-triazol-4-yl}quinolin-7-yl)benzoic acid]	17 nM	0.208 µM	179 nM	> 10 µM
N#CCC1(n2ncc(-c3cc(-c4ccc(C(=O)O)cc4)cc4ncccc34)n2)CC(C#N)C1 (stereo not drawn) [Example 436, 4-(5-{2-[trans-3-cyano-1-(cyanomethyl)cyclobutyl]-2H-1,2,3-triazol-4-yl}quinolin-7-yl)benzoic acid]	75 nM	1.49 µM	1130 nM	> 10 µM
CS(=O)(=O)N1CC(CC#N)(n2ncc(-c3cc(-c4ccccc4O)cc4ncccc34)n2)C1 [Example 437, [3-{4-[7-(2-hydroxyphenyl)quinolin-5-yl]-2H-1,2,3-triazol-2-yl}-1-(methylsulfonyl)azetidin-3-yl]acetonitrile]	1210 nM	> 10 µM	> 10000 nM	> 10 µM
CS(=O)(=O)N1CC(CC#N)(n2ncc(-c3cc(-c4cccc(O)c4)cc4ncccc34)n2)C1 [Example 438, [3-{4-[7-(3-hydroxyphenyl)quinolin-5-yl]-2H-1,2,3-triazol-2-yl}-1-(methylsulfonyl)azetidin-3-yl]acetonitrile]	107 nM	5.63 µM	1960 nM	> 10 µM
CS(=O)(=O)N1CC(CC#N)(n2ncc(-c3cc(-c4ccc(O)cc4)cc4ncccc34)n2)C1 [Example 439, [3-{4-[7-(4-hydroxyphenyl)quinolin-5-yl]-2H-1,2,3-triazol-2-yl}-1-(methylsulfonyl)azetidin-3-yl]acetonitrile]	30 nM	1.21 µM	609 nM	> 10 µM
N#CC[C@]1(n2ncc(-c3cc(-c4ccc(OCCN)cc4)cc4ncccc34)n2)C[C@H](C#N)C1 [Example 440, trans-3-(4-{7-[4-(2-aminoethoxy)phenyl]quinolin-5-yl}-2H-1,2,3-triazol-2-yl)-3-(cyanomethyl)cyclobutanecarbonitrile]	139 nM	6.43 µM	805 nM	> 10 µM
CS(=O)(=O)N1CC(CC#N)(n2ncc(-c3cc(-c4ccc(F)cc4O)cc4ncccc34)n2)C1 [Example 441, [3-{4-[7-(4-fluoro-2-hydroxyphenyl)quinolin-5-yl]-2H-1,2,3-triazol-2-yl}-1-(methylsulfonyl)azetidin-3-yl]acetonitrile]	1100 nM	> 10 µM	> 10000 nM	> 10 µM
CS(=O)(=O)N1CC(CC#N)(n2ncc(-c3cc(-c4cc(F)ccc4O)cc4ncccc34)n2)C1 [Example 442]	7540 nM	> 10 µM	> 10000 nM	> 10 µM
CS(=O)(=O)N1CC(CC#N)(n2ncc(-c3cc(-c4cc(O)cc(F)c4)cc4ncccc34)n2)C1 [Example 443]	631 nM	> 10 µM	6460 nM	> 10 µM
CS(=O)(=O)N1CC(CC#N)(n2ncc(-c3cc(-c4ccc(O)c(F)c4)cc4ncccc34)n2)C1 [Example 444]	77 nM	1.24 µM	1180 nM	> 10 µM

Next, values leading:

IC50 (TYK2)	IC50 (JAK1)	IC50 (JAK2)	IC50 (JAK3)	Structure (SMILES)
330 nM	> 10 µM	5610 nM	> 10 µM	CS(=O)(=O)N1CC(CC#N)(n2ncc(-c3cc(-c4cccc(CO)c4F)cc4ncccc34)n2)C1 [Example 445, [3-(4-{7-[2-fluoro-3-(hydroxymethyl)phenyl]quinolin-5-yl}-2H-1,2,3-triazol-2-yl)-1-(methylsulfonyl)azetidin-3-yl]acetonitrile]
101 nM	4.73 µM	964 nM	> 10 µM	CS(=O)(=O)N1CC(CC#N)(n2ncc(-c3cc(-c4ccc(F)c(CO)c4)cc4ncccc34)n2)C1 [Example 446, [3-(4-{7-[4-fluoro-3-(hydroxymethyl)phenyl]quinolin-5-yl}-2H-1,2,3-triazol-2-yl)-1-(methylsulfonyl)azetidin-3-yl]acetonitrile]
17 nM	0.18 µM	160 nM	9.4 µM	N#CC[C@]1(n2ncc(-c3cc(-c4ccc(-c5nnn[nH]5)cc4)cc4ncccc34)n2)C[C@@H](C#N)C1 [Example 447, cis-3-(cyanomethyl)-3-(4-{7-[4-(1H-tetrazol-5-yl)phenyl]quinolin-5-yl}-2H-1,2,3-triazol-2-yl)cyclobutanecarbonitrile]
257 nM	> 10 µM	2680 nM	> 10 µM	CS(=O)(=O)N1CC(CC#N)(n2ncc(-c3cc(-c4ccc5c(c4)C(=O)NC5)cc4ncccc34)n2)C1 [Example 448, [1-(methylsulfonyl)-3-{4-[7-(3-oxo-2,3-dihydro-1H-isoindol-5-yl)quinolin-5-yl]-2H-1,2,3-triazol-2-yl}azetidin-3-yl]acetonitrile]
368 nM	> 10 µM	6500 nM	> 10 µM	N#CC[C@]1(n2ncc(-c3cc(-c4cccc5c4NC(=O)C5)cc4ncccc34)n2)C[C@@H](C#N)C1 [Example 449, cis-3-(cyanomethyl)-3-{4-[7-(2-oxo-2,3-dihydro-1H-indol-7-yl)quinolin-5-yl]-2H-1,2,3-triazol-2-yl}cyclobutanecarbonitrile]
1420 nM	> 10 µM	> 10000 nM	> 10 µM	N#CCC1(n2ncc(-c3cc(-c4cccc5c4NC(=O)C5)cc4ncccc34)n2)CC(C#N)C1 (stereo not drawn) [Example 450, trans-3-(cyanomethyl)-3-{4-[7-(2-oxo-2,3-dihydro-1H-indol-7-yl)quinolin-5-yl]-2H-1,2,3-triazol-2-yl}cyclobutanecarbonitrile]
283 nM	> 10 µM	7160 nM	> 10 µM	CS(=O)(=O)N1CC(CC#N)(n2cnc(-c3cc(-c4ccc(=O)[nH]c4)cc4ncccc34)n2)C1 [Example 451, [1-(methylsulfonyl)-3-{3-[7-(6-oxo-1,6-dihydropyridin-3-yl)quinolin-5-yl]-1H-1,2,4-triazol-1-yl}azetidin-3-yl]acetonitrile]
322 nM	7.19 µM	6810 nM	> 10 µM	CS(=O)(=O)N1CC(CC#N)(n2cnc(-c3cc(-c4ccn[nH]4)cc4ncccc34)n2)C1 [Example 452, [1-(methylsulfonyl)-3-{3-[7-(1H-pyrazol-5-yl)quinolin-5-yl]-1H-1,2,4-triazol-1-yl}azetidin-3-yl]acetonitrile]
259 nM	8.3 µM	3180 nM	> 10 µM	CS(=O)(=O)N1CC(CC#N)(n2cnc(-c3cc(-c4cn[nH]c4)cc4ncccc34)n2)C1 [Example 453, [1-(methylsulfonyl)-3-{3-[7-(1H-pyrazol-4-yl)quinolin-5-yl]-1H-1,2,4-triazol-1-yl}azetidin-3-yl]acetonitrile]
36 nM	0.912 µM	468 nM	> 10 µM	N#CC[C@]1(n2cc(-c3cc(-c4cc[nH]n4)cc4nccn34)cn2)C[C@@H](C#N)C1 [Example 454, cis-3-(cyanomethyl)-3-{4-[7-(1H-pyrazol-3-yl)imidazo[1,2-a]pyridin-5-yl]-1H-pyrazol-1-yl}cyclobutanecarbonitrile]
319 nM	> 10 µM	5680 nM	> 10 µM	N#CC[C@]1(n2cc(-c3cc(-c4cc[nH]n4)cc4nccn34)cn2)C[C@H](C#N)C1 [Example 455, trans-3-(cyanomethyl)-3-{4-[7-(1H-pyrazol-3-yl)imidazo[1,2-a]pyridin-5-yl]-1H-pyrazol-1-yl}cyclobutanecarbonitrile]
126 nM	1.31 µM	812 nM	> 10 µM	N#CC[C@]1(n2cc(-c3cc(-c4cn[nH]c4)cc4nccn34)cn2)C[C@@H](C#N)C1 [Example 456, cis-3-(cyanomethyl)-3-{4-[7-(1H-pyrazol-4-yl)imidazo[1,2-a]pyridin-5-yl]-1H-pyrazol-1-yl}cyclobutanecarbonitrile]
252 nM	> 10 µM	3940 nM	> 10 µM	Cn1cc(-c2cc(-c3cnn(C4(CC#N)CN(CC(F)(F)F)C4)c3)n3ccnc3c2)cn1 [Example 457, [3-{4-[7-(1-methyl-1H-pyrazol-4-yl)imidazo[1,2-a]pyridin-5-yl]-1H-pyrazol-1-yl}-1-(2,2,2-trifluoroethyl)azetidin-3-yl]acetonitrile]
297 nM	> 10 µM	3150 nM	> 10 µM	Cn1cc(-c2cc(-c3cnn([C@]4(CC#N)C[C@@H](C#N)C4)c3)n3ccnc3c2)cn1 [Example 459, trans-3-(cyanomethyl)-3-{4-[7-(1-methyl-1H-pyrazol-4-yl)imidazo[1,2-a]pyridin-5-yl]-1H-pyrazol-1-yl}cyclobutanecarbonitrile]
